Reference: ChEMBL document CHEMBL1121892, “5-Tetrazolecarboxamides and their salts: new orally active antiallergy agents” (1981)
Activity calls are given as the source filed them. No cut-off for these calls is given here.

Key:
[1] = test system: Rattus norvegicus; assay: Inhibition of rat passive cutaneous anaphylaxis following i.p. administration.; type: functional; conditions: ip
[2] = test system: Rattus norvegicus; assay: Inhibition of rat passive cutaneous anaphylaxis following p.o. administration.; conditions: po
[3] = test system: Rattus norvegicus; assay: Inhibition of rat passive cutaneous anaphylaxis following p.o. administration; Not active.

| Compound | ED50 [1] [mg/kg] | ED50 [2] [mg/kg] | ED50 [3] |
| --- | --- | --- | --- |
| N#Cc1c(NC(=O)c2nnn[n-]2)cccc1N1CCCCC1.[Na+] | 0.4 | 7 | – |
| CN1CCN(c2cccc(NC(=O)c3nn[nH]n3)c2C#N)CC1 | 0.02 | 0.2 | – |
| N#Cc1cc(NC(=O)c2nnn[n-]2)c(Cl)c(NC(=O)c2nnn[n-]2)c1.[Na+].[Na+] | 0.3 | – | – |
| CCOC(=O)C(=O)Nc1cc(C#N)cc(NC(=O)c2nn[nH]n2)c1 | 0.2 | – | – |
| O=C(Nc1cc(Cl)cc(NC(=O)c2nnn[n-]2)n1)c1nnn[n-]1.[Na+].[Na+] | 0.2 | 2 | – |
| COc1cccc(NC(=O)c2nn[nH]n2)c1C(N)=O | 0.1 | 0.2 | – |
| CN(C)c1cccc(NC(=O)c2nnn[n-]2)c1C#N.[Na+] | 2 | 1.7 | – |
| O=C(Nc1cccc(NC(=O)c2nnn[n-]2)n1)c1nnn[n-]1.[Na+].[Na+] | 0.02 | 0.1 | – |
| NC(=O)c1c(NC(=O)c2nnn[n-]2)cccc1N1CCOCC1.[Na+] | 0.2 | – | – |
| CN1CCN(c2cccc(NC(=O)c3nn[nH]n3)c2C(N)=O)CC1 | 0.01 | 2.3 | – |
| N#Cc1ccccc1NC(=O)c1nnn[n-]1.[Na+] | 0.5 | 10 | – |
| NC(=O)c1c(NC(=O)c2nnn[n-]2)cccc1N1CCCCC1.[Na+] | 0.8 | 46 | – |
| CN(C)c1cccc(NC(=O)c2nnn[n-]2)c1C(N)=O.[Na+] | 0.9 | 34 | – |
| N#Cc1cc(NC(=O)c2nnn[n-]2)cc(NC(=O)c2nnn[n-]2)c1.[Na+].[Na+] | 0.04 | 1 | – |
| O=C([O-])c1cc(=O)c2c(OCC(O)COc3cccc4oc(C(=O)[O-])cc(=O)c34)cccc2o1.[Na+].[Na+] [CROMOLYN SODIUM] | 8 | – | inactive |
| N#Cc1c(NC(=O)c2nn[nH]n2)cccc1N1CCOCC1 | 0.5 | 10 | – |
| NC(=O)c1cc(NC(=O)c2nnn[n-]2)cc(NC(=O)c2nnn[n-]2)c1.[Na+].[Na+] | 0.02 | > 10 | – |
| CCNc1cccc(NC(=O)c2nnn[n-]2)c1C#N.[Na+] | 1.1 | 2.6 | – |
| O=C(Nc1cc(C(F)(F)F)cc(NC(=O)c2nnn[n-]2)c1Cl)c1nnn[n-]1.[Na+].[Na+] | 1.6 | – | – |
| O=C(Nc1ccccn1)c1nnn[n-]1.[Na+] | 0.31 | 0.68 | – |
